Experimental data as given in patent US20110245284A1, “Alkoxy- and Alkylthio-Substituted Anilinopyrimidines” (Bayer CropScience AG, priority 2008, published 2011).

Legend:
Sphaerotheca fuliginea = test: Sphaerotheca test (cucumber) / protective; assay type: in vivo; settings: Podosphaera fuliginea, 168 h, active compound concentration 500 ppm, evaluation 7 days after inoculation, read-out: efficacy
Protocol: The plants are subsequently placed in a greenhouse at 70% relative atmospheric humidity and a temperature of 23° C.

Leptosphaeria nodorum = Leptosphaeria nodorum test (wheat) / protective; assay type: in vivo; settings: Parastagonospora nodorum, active compound concentration 500 ppm, evaluation 7-9 days after inoculation, read-out: efficacy
Protocol: Thereafter, the plants are placed in a greenhouse at 90% relative atmospheric humidity and a temperature of 22° C.

[1] = logP by LC-MS on reversed-phase columns (C 18), method [b], acidic range pH 2.7; assay type: physicochemical; settings: for chromatographic logP: pH 2.7, log p
Protocol: (§1) The logP values were determined in accordance with EEC Directive 79/831 Annex V.A8 by HPLC (High Performance Liquid Chromatography) on reversed-phase columns (C 18), using the methods below:
[b] The LC-MS determination in the acidic range is carried out at pH 2.7 using the mobile phases 0.1% aqueous formic acid and acetonitrile (contains 0.1% formic acid), linear gradient from 10% acetonitrile to 95% acetonitrile.

[2] = logP by LC-MS on reversed-phase columns (C 18), method [c], neutral range pH 7.8; assay type: physicochemical
Protocol: as §1
[c] The LC-MS determination in the neutral range is carried out at pH 7.8 using the mobile phases 0.001 molar aqueous ammonium bicarbonate solution and acetonitrile, linear gradient from 10% acetonitrile to 95% acetonitrile.

[3] = method [b], LC-MS, acidic range pH 2.7
[4] = method [c], LC-MS, neutral range pH 7.8

chromatographic logP [1]	chromatographic logP ([2]; pH 7.8)	Structure (SMILES)	pest or weed control at 500 ppm (Leptosphaeria nodorum) [%]	also measured
4.34		CSC(C)c1cccc(Nc2ncc(C(F)(F)F)c(NC3CCC3)n2)c1 (stereo not shown) [Example 18]	≥ 70	pest or weed control at 500 ppm (Sphaerotheca fuliginea): ≥ 70%
1.99		COCc1cccc(Nc2ncc(Cl)c(NCC(F)F)n2)c1 [Example 22]	≥ 70	pest or weed control at 500 ppm (Sphaerotheca fuliginea): ≥ 70%
4.08		CCCSc1cccc(Nc2ncc(Cl)c(NCC(F)(F)F)n2)c1 [Example 30]		pest or weed control at 500 ppm (Sphaerotheca fuliginea): ≥ 70%
3.49		CCSCc1cccc(Nc2ncc(Cl)c(NCC(F)(F)F)n2)c1 [Example 32]		pest or weed control at 500 ppm (Sphaerotheca fuliginea): ≥ 70%
1.95		COCCOc1cccc(Nc2ncc(Br)c(NC3CC3)n2)c1 [Example 67]	≥ 70	pest or weed control at 500 ppm (Sphaerotheca fuliginea): ≥ 70%
1.48	2.16	CC[S+]([O-])C(C)c1cccc(Nc2ncc(Cl)c(NC3CC3)n2)c1 (stereo not shown) [Example 74]	≥ 70	
2.14	3.7	CCN(C)c1nc(Nc2cccc(COC)c2)ncc1Cl [Example 85]	≥ 70	pest or weed control at 500 ppm (Sphaerotheca fuliginea): ≥ 70%
		COCc1cccc(Nc2ncc(Cl)c(N3CCOCC3)n2)c1 [Example 90]		log p ([1]; pH 2.7): 2.4[b]; log p ([2]; pH 7.8): 2.87[c];
		CCCSc1cccc(Nc2ncc(Br)c(NC3CC3C)n2)c1 (stereo not shown) [Example 99]		log p [1, 3]: 3.83[b]; log p [2, 4]: 5.09[c];
4.57	5.71	CCCCSc1cccc(Nc2ncc(Br)c(NC3CCC3)n2)c1 [Example 104]	≥ 70	
2.43	2.99	CCCS(=O)(=O)c1cccc(Nc2ncc(Br)c(NC3CC3)n2)c1 [Example 110]	≥ 70	
2.94	3.02	CCCC[S+]([O-])c1cccc(Nc2ncc(C(F)(F)F)c(NC3CC3)n2)c1 (stereo not shown) [Example 122]		
2.65	3.18	CCCCS(=O)(=O)c1cccc(Nc2ncc(Cl)c(NC3CC3)n2)c1 [Example 123]	≥ 70	
5.55	5.78	CCCCSc1cccc(Nc2ncc(C(F)(F)F)c(NC3CCC3)n2)c1 [Example 128]	≥ 70	
		COC(C)c1cccc(Nc2ncc(Cl)c(NC(C)C3(Cl)CC3)n2)c1 (stereo not shown) [Example 130]		log p ([1]; pH 2.7): 3.72[b]; log p ([2]; pH 7.8): 4.65[c];
		CCCC(C)SC(C)c1cccc(Nc2ncc(Cl)c(NC3CC3)n2)c1 (stereo not shown) [Example 134]		log p ([1]; pH 2.7): 4.24[b]; log p ([2]; pH 7.8): 5.55[c];
		CCCC(C)SC(C)c1cccc(Nc2ncc(C(F)(F)F)c(NC3CC3)n2)c1 (stereo not shown) [Example 135]		log p ([1]; pH 2.7): 5.53[b]; log p ([2]; pH 7.8): 5.8[c];
		CCN(c1nc(Nc2cccc(COC)c2)ncc1Cl)C1CC1 [Example 137]		log p ([1]; pH 2.7): 3.24[b]; log p ([2]; pH 7.8): 4.23[c];
2.08		COCc1cccc(Nc2ncc(Cl)c(NCC(C)C)n2)c1 [Example 148]	≥ 70	pest or weed control at 500 ppm (Sphaerotheca fuliginea): ≥ 70%

chromatographic logP [1]	chromatographic logP ([2]; pH 7.8)	Structure (SMILES)	pest or weed control at 500 ppm (Leptosphaeria nodorum) [%]	also measured
1.72		CCCNc1nc(Nc2cccc(COC)c2)ncc1Cl [Example 149]	≥ 70	pest or weed control at 500 ppm (Sphaerotheca fuliginea): ≥ 70%
		CCCC[S+]([O-])c1cccc(Nc2ncc(Br)c(NC3CCC3)n2)c1 (stereo not shown) [Example 152]		log p ([1]; pH 2.7): 2.67[b]; log p ([2]; pH 7.8): 3.5[c];
		CCS(=O)(=O)C(C)c1cccc(Nc2ncc(Br)c(NC3CC3)n2)c1 (stereo not shown) [Example 154]		log p ([1]; pH 2.7): 1.76[b]; log p ([2]; pH 7.8): 2.7[c];
5.01	5.43	CCCSc1cccc(Nc2ncc(C(F)(F)F)c(NC3CCC3)n2)c1 [Example 155]	≥ 70	
2.64	3.23	CC(C)CS(=O)(=O)c1cccc(Nc2ncc(Cl)c(NC3CC3)n2)c1 [Example 161]	≥ 70	
		CCCC(C)S(=O)(=O)C(C)c1cccc(Nc2ncc(Cl)c(NC3CC3)n2)c1 (stereo not shown) [Example 165]		log p ([1]; pH 2.7): 2.48[b]; log p ([2]; pH 7.8): 3.56[c];
		CCCC(C)[S+]([O-])C(C)c1cccc(Nc2ncc(Cl)c(NC3CC3)n2)c1 (stereo not shown) [Example 166]		log p ([1]; pH 2.7): 2.2[b]; log p ([2]; pH 7.8): 3.1[c];
		CCCC(C)[S+]([O-])C(C)c1cccc(Nc2ncc(C(F)(F)F)c(NC3CC3)n2)c1 (stereo not shown) [Example 167]		log p ([1]; pH 2.7): 3.34[b]; log p ([2]; pH 7.8): 3.85[c];
3.09	3.69	CCCCS(=O)(=O)c1cccc(Nc2ncc(Cl)c(NC3CCC3)n2)c1 [Example 170]	≥ 70	
1.18	2.44	CNc1nc(Nc2cccc(COC)c2)ncc1Cl [Example 172]		
		CCOCCOCCSc1cccc(Nc2ncc(Cl)c(NC3CC3)n2)c1 [Example 180]		log p ([1]; pH 2.7): 2.58[b]; log p ([2]; pH 7.8): 3.63[c];
		COCCOCCOc1ccc(Nc2ncc(C(F)(F)F)c(NC3CC3)n2)cc1C(F)(F)F [Example 182]		log p ([1]; pH 2.7): 3.52[b]; log p ([2]; pH 7.8): 3.79[c];
2.91	4	CCOCCOc1ccc(Nc2ncc(Cl)c(NC3CC3)n2)cc1C(F)(F)F [Example 185]		
4.9	5.01	CCC(C)Sc1cccc(Nc2ncc(C(F)(F)F)c(NC3CC3)n2)c1 (stereo not shown) [Example 188]	≥ 70	
2.7	3.76	CCOCCSc1cccc(Nc2ncc(Cl)c(NC3CC3)n2)c1 [Example 189]	≥ 70	
3.91	4.01	CCCCS(=O)(=O)c1cccc(Nc2ncc(C(F)(F)F)c(NC3CCC3)n2)c1 [Example 202]	≥ 70	
		COCCOC(c1cccc(Nc2ncc(Cl)c(NC3CC3)n2)c1)C(F)(F)F (stereo not shown) [Example 215]		log p ([1]; pH 2.7): 2.63[b]; log p ([2]; pH 7.8): 3.61[c];
		COCCOC(c1cccc(Nc2ncc(C(F)(F)F)c(NC3CC3)n2)c1)C(F)(F)F (stereo not shown) [Example 216]		log p ([1]; pH 2.7): 3.72[b]; log p ([2]; pH 7.8): 3.9[c];
		COCCOC(c1cccc(Nc2ncc(Br)c(NC3CC3)n2)c1)C(F)(F)F (stereo not shown) [Example 217]		log p ([1]; pH 2.7): 2.85[b]; log p ([2]; pH 7.8): 3.76[c];

chromatographic logP [1]	chromatographic logP ([2]; pH 7.8)	Structure (SMILES)	pest or weed control at 500 ppm (Leptosphaeria nodorum) [%]	also measured
2.79		CCSCc1cccc(Nc2ncc(Br)c(NC3CC3)n2)c1 [Example 218]	≥ 70	pest or weed control at 500 ppm (Sphaerotheca fuliginea): ≥ 70%
2.54		COCC(=O)c1cccc(Nc2ncc(C(F)(F)F)c(NC3CC3)n2)c1 [Example 225]	≥ 70	pest or weed control at 500 ppm (Sphaerotheca fuliginea): ≥ 70%
		COC(C)c1cccc(Nc2ncc(Br)c(NC3CC3C)n2)c1 (stereo not shown) [Example 226]		log p [1, 3]: 2.5[b]; log p [2, 4]: 3.98[c];
0.95		COC(C)c1cccc(Nc2ncc(Cl)c(NC3CC3C)n2)c1 (stereo not shown) [Example 228]	≥ 70	pest or weed control at 500 ppm (Sphaerotheca fuliginea): ≥ 70%
3.61	4.1	COC(C)c1cccc(Nc2ncc(C(F)(F)F)c(NC3CC3C)n2)c1 (stereo not shown) [Example 229]	≥ 70	
4.89	5.27	CCSc1cccc(Nc2ncc(C(F)(F)F)c(NC3CCC3C)n2)c1 (stereo not shown) [Example 233]		
4.09	5.34	CCSc1cccc(Nc2ncc(C(F)(F)F)c(NC3CC(C)C3)n2)c1 (stereo not shown) [Example 234]	≥ 70	
4.9	5.23	CCCSc1cccc(Nc2ncc(C(F)(F)F)c(NC3CC3C)n2)c1 (stereo not shown) [Example 235]	≥ 70	
		CCOC(C)c1cccc(Nc2ncc(Br)c(NC3CC3C)n2)c1 (stereo not shown) [Example 240]		log p [1, 3]: 2.89[b]; log p [2, 4]: 4.42[c];
2.98	3.32	CC[S+]([O-])c1cccc(Nc2ncc(C(F)(F)F)c(NC3CC(C)C3)n2)c1 (stereo not shown) [Example 242]		
2	3.26	COCCOC(C)c1cccc(Nc2ncc(Cl)c(NC3CC3)n2)c1 (stereo not shown) [Example 243]		
2.9	3.3	CC[S+]([O-])c1cccc(Nc2ncc(C(F)(F)F)c(NC3CCC3C)n2)c1 (stereo not shown) [Example 244]		
3.43	3.61	CCCS(=O)(=O)c1cccc(Nc2ncc(C(F)(F)F)c(NC3CC3C)n2)c1 (stereo not shown) [Example 245]		
2.9	3.23	CCC[S+]([O-])c1cccc(Nc2ncc(C(F)(F)F)c(NC3CC3C)n2)c1 (stereo not shown) [Example 246]		
3.49	3.98	COCCCOC(C)c1cccc(Nc2ncc(C(F)(F)F)c(NC3CC3)n2)c1 (stereo not shown) [Example 254]		
3.05	3.61	COCCOC(C)c1cccc(Nc2ncc(C(F)(F)F)c(NC3CC3)n2)c1 (stereo not shown) [Example 257]		
3.6	4.12	CCOC(C)c1cccc(Nc2ncc(C(F)(F)F)c(NC3CC3)n2)c1 (stereo not shown) [Example 258]		
3.59	5.3	CCSC(C)c1cccc(Nc2ncc(Cl)c(NC3CCC3C)n2)c1 (stereo not shown) [Example 259]		
